# Laboratory results as given in paper PMC12748989 (Nature Communications, 2025).
# Legend:
# PBMC = conditions: 12.5 µM
Compound,"Average (percentage cell inhibition), Dmastoparan MDA-MB231 12.5uM (MDA-MB-231 cells) [%]","Average (percentage cell inhibition), Mastoparan PBMC (PBMC) [%]"
CC[C@H](C)[C@H](N)C(=O)N[C@@H](CC(N)=O)C(=O)N[C@@H](CC(C)C)C(=O)N[C@@H](CCCCN)C(=O)N[C@@H](C)C(=O)N[C@@H](CC(C)C)C(=O)N[C@@H](C)C(=O)N[C@@H](C)C(=O)N[C@@H](CC(C)C)C(=O)N[C@@H](C)C(=O)N[C@@H](CCCCN)C(=O)N[C@@H](CCCCN)C(=O)N[C@H](C(=O)N[C@H](C(N)=O)C(C)C)[C@@H](C)CC [V14],42.849,3.082
H-INLKALAALAKKLL-NH2 [L13],83.7429,38.8767
CC[C@H](C)[C@H](N)C(=O)N[C@@H](CC(N)=O)C(=O)N[C@@H](CC(C)C)C(=O)N[C@@H](CCCCN)C(=O)N[C@@H](C)C(=O)N[C@@H](CC(C)C)C(=O)N[C@@H](C)C(=O)N[C@@H](C)C(=O)N[C@@H](CC(C)C)C(=O)N[C@@H](C)C(=O)N[C@@H](Cc1c[nH]cn1)C(=O)N[C@@H](CCCCN)C(=O)N[C@H](C(=O)N[C@@H](CC(C)C)C(N)=O)[C@@H](C)CC [H11],27.1728,-0.6179
CC[C@H](C)[C@H](N)C(=O)N[C@@H](CC(N)=O)C(=O)N[C@@H](CC(C)C)C(=O)N[C@@H](CCCCN)C(=O)N[C@@H](C)C(=O)N[C@@H](CC(C)C)C(=O)N[C@@H](C)C(=O)N[C@@H](Cc1c[nH]cn1)C(=O)N[C@@H](CC(C)C)C(=O)N[C@@H](C)C(=O)N[C@@H](CCCCN)C(=O)N[C@@H](CCCCN)C(=O)N[C@H](C(=O)N[C@@H](CC(C)C)C(N)=O)[C@@H](C)CC [H8],53.8201,-4.293
CC[C@H](C)[C@H](N)C(=O)N[C@@H](CC(N)=O)C(=O)N[C@@H](CC(C)C)C(=O)N[C@@H](CCCCN)C(=O)N[C@@H](C)C(=O)N[C@@H](CC(C)C)C(=O)N[C@@H](C)C(=O)N[C@@H](C)C(=O)N[C@@H](CC(C)C)C(=O)N1CCC[C@H]1C(=O)N[C@@H](CCCCN)C(=O)N[C@@H](CCCCN)C(=O)N[C@H](C(=O)N[C@@H](CC(C)C)C(N)=O)[C@@H](C)CC [P10],28.7019,-7.837
CC[C@H](C)[C@H](NC(=O)[C@H](CCCCN)NC(=O)[C@H](CCCCN)NC(=O)[C@H](C)NC(=O)[C@H](CC(C)C)NC(=O)[C@H](C)NC(=O)[C@H](C)NC(=O)[C@H](CC(C)C)NC(=O)[C@H](C)NC(=O)[C@H](CCCCN)NC(=O)[C@H](CC(C)C)NC(=O)[C@H](CC(N)=O)NC(=O)[C@@H](N)CO)C(=O)N[C@@H](CC(C)C)C(N)=O [S1],31.5771,-13.6432
CC[C@H](C)[C@H](N)C(=O)N[C@@H](CC(N)=O)C(=O)N[C@@H](CC(C)C)C(=O)N[C@@H](CCCCN)C(=O)N[C@@H](C)C(=O)N[C@@H](CC(C)C)C(=O)NCC(=O)N[C@@H](C)C(=O)N[C@@H](CC(C)C)C(=O)N[C@@H](C)C(=O)N[C@@H](CCCCN)C(=O)N[C@@H](CCCCN)C(=O)N[C@H](C(=O)N[C@@H](CC(C)C)C(N)=O)[C@@H](C)CC [G7],49.0864,11.7718
CC[C@H](C)[C@H](N)C(=O)N[C@@H](CCCCN)C(=O)N[C@@H](CC(C)C)C(=O)N[C@@H](CCCCN)C(=O)N[C@@H](C)C(=O)N[C@@H](CC(C)C)C(=O)N[C@@H](C)C(=O)N[C@@H](C)C(=O)N[C@@H](CC(C)C)C(=O)N[C@@H](C)C(=O)N[C@@H](CCCCN)C(=O)N[C@@H](CCCCN)C(=O)N[C@H](C(=O)N[C@@H](CC(C)C)C(N)=O)[C@@H](C)CC [K2],44.3131,14.3506
CC[C@H](C)[C@H](NC(=O)[C@H](CCCCN)NC(=O)[C@H](CCCCN)NC(=O)[C@H](C)NC(=O)[C@H](CC(C)C)NC(=O)[C@H](C)NC(=O)[C@H](C)NC(=O)[C@H](CC(C)C)NC(=O)[C@H](C)NC(=O)[C@H](CCCCN)NC(=O)[C@H](CC(C)C)NC(=O)[C@H](CC(N)=O)NC(=O)[C@@H](N)CCCNC(=N)N)C(=O)N[C@@H](CC(C)C)C(N)=O [R1],31.3783,-2.103
CC[C@H](C)[C@H](N)C(=O)N[C@@H](CC(N)=O)C(=O)N[C@@H](Cc1c[nH]c2ccccc12)C(=O)N[C@@H](CCCCN)C(=O)N[C@@H](C)C(=O)N[C@@H](CC(C)C)C(=O)N[C@@H](C)C(=O)N[C@@H](C)C(=O)N[C@@H](CC(C)C)C(=O)N[C@@H](C)C(=O)N[C@@H](CCCCN)C(=O)N[C@@H](CCCCN)C(=O)N[C@H](C(=O)N[C@@H](CC(C)C)C(N)=O)[C@@H](C)CC [W3],65.1242,22.6054
CC[C@H](C)[C@H](N)C(=O)N[C@@H](CC(N)=O)C(=O)N[C@@H](CC(C)C)C(=O)N[C@@H](CCCCN)C(=O)N[C@@H](C)C(=O)N[C@@H](CC(C)C)C(=O)N[C@@H](C)C(=O)N[C@@H](C)C(=O)N[C@@H](CC(C)C)C(=O)N[C@@H](C)C(=O)N[C@@H](CCCCN)C(=O)N[C@@H](CCCCN)C(=O)N[C@H](C(=O)N[C@@H](CCC(N)=O)C(N)=O)[C@@H](C)CC [Q14],0.3995,1.109
CC[C@H](C)[C@H](N)C(=O)N[C@@H](CC(N)=O)C(=O)N[C@@H](CC(C)C)C(=O)N[C@@H](CCCCN)C(=O)N[C@@H](C)C(=O)N[C@@H](CC(C)C)C(=O)N[C@@H](C)C(=O)N[C@@H](CCC(N)=O)C(=O)N[C@@H](CC(C)C)C(=O)N[C@@H](C)C(=O)N[C@@H](CCCCN)C(=O)N[C@@H](CCCCN)C(=O)N[C@H](C(=O)N[C@@H](CC(C)C)C(N)=O)[C@@H](C)CC [Q8],46.0978,5.553
CC[C@H](C)[C@H](N)C(=O)N[C@@H](CC(N)=O)C(=O)N[C@@H](CC(C)C)C(=O)N[C@@H](CCCCN)C(=O)N[C@@H](C)C(=O)N[C@@H](CC(C)C)C(=O)N[C@@H](C)C(=O)N[C@@H](C)C(=O)N[C@@H](CC(C)C)C(=O)N[C@@H](CCC(=O)O)C(=O)N[C@@H](CCCCN)C(=O)N[C@@H](CCCCN)C(=O)N[C@H](C(=O)N[C@@H](CC(C)C)C(N)=O)[C@@H](C)CC [E10],7.891,-0.2344
CC[C@H](C)[C@H](N)C(=O)N[C@@H](CC(N)=O)C(=O)N[C@H](C(=O)N[C@@H](CCCCN)C(=O)N[C@@H](C)C(=O)N[C@@H](CC(C)C)C(=O)N[C@@H](C)C(=O)N[C@@H](C)C(=O)N[C@@H](CC(C)C)C(=O)N[C@@H](C)C(=O)N[C@@H](CCCCN)C(=O)N[C@@H](CCCCN)C(=O)N[C@H](C(=O)N[C@@H](CC(C)C)C(N)=O)[C@@H](C)CC)[C@@H](C)CC [I3],30.5933,14.9456
CC[C@H](C)[C@H](N)C(=O)N[C@@H](CC(N)=O)C(=O)N[C@@H](CC(C)C)C(=O)N[C@@H](CCCCN)C(=O)N[C@@H](C)C(=O)N[C@@H](CC(C)C)C(=O)N[C@@H](C)C(=O)N[C@@H](C)C(=O)N[C@@H](CC(C)C)C(=O)N[C@@H](C)C(=O)N[C@@H](CCCCN)C(=O)N[C@@H](CCCCN)C(=O)N[C@H](C(=O)N[C@@H](Cc1ccc(O)cc1)C(N)=O)[C@@H](C)CC [Y14],29.2623,-0.4376
CC[C@H](C)[C@H](N)C(=O)N[C@@H](CC(N)=O)C(=O)N[C@@H](CC(C)C)C(=O)N[C@@H](CCCCN)C(=O)N[C@@H](C)C(=O)N[C@@H](CC(C)C)C(=O)N[C@@H](C)C(=O)N[C@@H](CCCCN)C(=O)N[C@@H](CC(C)C)C(=O)N[C@@H](C)C(=O)N[C@@H](CCCCN)C(=O)N[C@@H](CCCCN)C(=O)N[C@H](C(=O)N[C@@H](CC(C)C)C(N)=O)[C@@H](C)CC [K8],44.6441,13.8127
CC[C@H](C)[C@H](N)C(=O)N[C@@H](CC(N)=O)C(=O)N[C@@H](CC(C)C)C(=O)N[C@@H](CCCCN)C(=O)N[C@@H](C)C(=O)N[C@@H](CC(C)C)C(=O)N[C@@H](C)C(=O)N[C@@H](C)C(=O)N[C@@H](CC(C)C)C(=O)N[C@@H](C)C(=O)N[C@@H](CCCCN)C(=O)N[C@@H](CCCCN)C(=O)N[C@@H](Cc1ccc(O)cc1)C(=O)N[C@@H](CC(C)C)C(N)=O [Y13],39.3488,16.5864
CC[C@H](C)[C@H](N)C(=O)N[C@@H](CC(N)=O)C(=O)N[C@@H](CC(C)C)C(=O)N[C@H](C(=O)N[C@@H](C)C(=O)N[C@@H](CC(C)C)C(=O)N[C@@H](C)C(=O)N[C@@H](C)C(=O)N[C@@H](CC(C)C)C(=O)N[C@@H](C)C(=O)N[C@@H](CCCCN)C(=O)N[C@@H](CCCCN)C(=O)N[C@H](C(=O)N[C@@H](CC(C)C)C(N)=O)[C@@H](C)CC)[C@@H](C)CC [I4],30.9221,5.736
CC[C@H](C)[C@H](NC(=O)[C@H](CCCCN)NC(=O)[C@H](CCCCN)NC(=O)[C@H](C)NC(=O)[C@H](CC(C)C)NC(=O)[C@H](C)NC(=O)[C@H](C)NC(=O)[C@H](CC(C)C)NC(=O)[C@H](C)NC(=O)[C@H](CCCCN)NC(=O)[C@H](CC(C)C)NC(=O)[C@H](CC(N)=O)NC(=O)[C@@H](N)Cc1c[nH]c2ccccc12)C(=O)N[C@@H](CC(C)C)C(N)=O [W1],42.4034,19.8521
CC[C@H](C)[C@H](N)C(=O)N[C@@H](CC(N)=O)C(=O)N[C@@H](CC(C)C)C(=O)N[C@@H](CCCCN)C(=O)N[C@@H](C)C(=O)N[C@@H](CC(C)C)C(=O)N[C@@H](Cc1ccc(O)cc1)C(=O)N[C@@H](C)C(=O)N[C@@H](CC(C)C)C(=O)N[C@@H](C)C(=O)N[C@@H](CCCCN)C(=O)N[C@@H](CCCCN)C(=O)N[C@H](C(=O)N[C@@H](CC(C)C)C(N)=O)[C@@H](C)CC [Y7],74.0703,16.9599
